Test results: patent US10336746B1, “RAD51 inhibitors” (Cyteir Therapeutics, Inc., priority 2017, dated 2019)
Where two headings read alike, the source gives them in different places.

Assays:
KG-1 (Leukemia) = assay: Cell line screen, KG-1; type: cell-based; settings: AICDA Expression Negative
Method: (§1) The activity of the claimed compounds was measured in a variety of cell lines with different expression levels of activation induced cytidine deaminase (AICDA). The potency assay was repeated in all of the listed cell lines and the EC50 values recorded.

SNU-5 (Gastric) = assay: Cell line screen, SNU-5; type: cell-based; settings: Homo sapiens, AICDA Expression Low
Method: as §1

WSU-FSCCL (Lymphoma) = assay: Cell line screen, WSU-FSCCL; type: cell-based; settings: AICDA Expression Negative
Method: as §1

[1] = Bi-directional Caco-2 permeability; type: in vitro ADME; settings: human; for efflux ratio at 90 min: Caco-2, read-out: BA/AB Ratio; for Papp A→B at 90 min: Caco-2, apical to basolateral, read-out: AB Papp (cm/sec × 10^6); for Papp A→B at 90 min / Papp B→A at 90 min: 37 C, up to 90 minutes; for Papp B→A at 90 min: Caco-2, basolateral to apical, read-out: BA Papp (cm/sec × 10^6)
Method: Bi-directional Caco-2 permeability was assayed. Caco-2 cells were seeded onto permeable polycarbonate supports and allowed to differentiate for about 3 weeks prior to being used in the assays. The cells were then exposed to the compounds from either the apical or basolateral sides and incubated at 37 C for up to 90 minutes under light agitation. Compound transport was then measured using LC/MS/MS analysis at 30, 60, and 90 minutes.

KYSE-70 (Head and Neck) = assay: Cell line screen, KYSE-70; type: cell-based; settings: Homo sapiens, AICDA Expression Low
Method: as §1

[2] = test system: WI-38 cells (AID negative); assay: Primary screening cell killing assay repeated in WI-38 cells (AID negative); type: cell-based; settings: Homo sapiens, 168 h, cell death on Day 7, Cell-Titer Glo
Outline: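 Cell-killing counter-screen in AID-negative WI-38 cells, probing RAD51 inhibition via AID/RAD51 synthetic lethality. Viability luminescence (RLU) was media-subtracted, normalized to DMSO wells, and converted to percent kill (1 − normalized RLU) × 100; EC50 came from non-linear regression on a semi-log scale.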

U-698-M (Lymphoma) = assay: Cell line screen, U-698-M; type: cell-based; settings: AICDA Expression High
Method: as §1

OV56 (Ovary) = assay: Cell line screen, OV56; type: cell-based; settings: AICDA Expression Low
Method: as §1

[3] = test system: ARPE19/HPV16 (HPV Immortalized RPE); assay: Cell line screen, ARPE19/HPV16; type: cell-based; settings: ARPE-19, AICDA Expression Negative
Method: as §1

KYSE-510 (Head and Neck) = assay: Cell line screen, KYSE-510; type: cell-based; settings: Homo sapiens, AICDA Expression Negative
Method: as §1

[4] = test system: WI-38 (Normal Human Lung Fibroblast); assay: Cell line screen, WI-38; type: cell-based; settings: AICDA Expression Negative
Method: as §1

Daudi (Lymphoma) = assay: Cell line screen, Daudi; type: cell-based; settings: Homo sapiens, AICDA Expression High
Method: as §1

[5] = test system: Daudi cell line (AID positive); assay: Primary screening cell killing assay, Daudi cell line (AID positive); type: cell-based; settings: Homo sapiens, 168 h, cell death on Day 7, Cell-Titer Glo
Outline: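 AID-positive Daudi cells, 1250 per well, were exposed to serially diluted compounds for 7 days at 37° C. Viability read by CellTiter-Glo luminescence; percent cell death and EC50 derived against untreated wells after media-blank subtraction.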

[6] = Caco-2, Caco-2, AB direction, read-out: AB Recovery %
[7] = Caco-2, Caco-2, BA direction, read-out: BA Recovery %

Structure (SMILES) | EC50 (KG-1 (Leukemia)) | EC50 (SNU-5 (Gastric)) | EC50 (WSU-FSCCL (Lymphoma)) | recovery at 90 min [1, 6] | recovery at 90 min [1, 7] | efflux ratio at 90 min [1] | Papp A→B at 90 min [1] | Papp B→A at 90 min [1] | EC50 (KYSE-70 (Head and Neck)) | EC50 [2] | EC50 (U-698-M (Lymphoma)) | EC50 (OV56 (Ovary)) | EC50 [3] | EC50 (KYSE-510 (Head and Neck)) | EC50 [4] | EC50 (Daudi (Lymphoma)) | EC50 [5]
CC(C)OC(=O)N[C@H]1CC[C@H](c2ncc(-c3ccc(NC(=O)NCc4ccccc4)cc3S(=O)(=O)NC(C)(C)C)s2)CC1 [Ex. 66A, trans-isopropyl N-[4-[5-[4-(benzylcarbamoylamino)-2-(tert-butylsulfamoyl)phenyl]thiazol-2-yl]cyclohexyl]carbamate] | 3070 nM | 2940 nM | 25 nM | 64.9% | 81.2% | 1.4 | 2.9 ×10⁻⁶ cm/s | 3.9 ×10⁻⁶ cm/s | 2640 nM | > 1000 nM | 88 nM | 5940 nM | > 10000 nM | 4520 nM | > 10000 nM | 18 nM | ≤ 100 nM
CC(C)OC(=O)Nc1ccc(-c2cnc([C@H]3CC[C@H](NC(=O)OC(C)C)CC3)s2)c(S(=O)(=O)NC(C)(C)C)c1 [Ex. 67A, trans-isopropyl N-[3-(tert-butylsulfamoyl)-4-[2-[4-(isopropoxycarbonylamino)cyclohexyl]thiazol-5-yl]phenyl]carbamate] | 3000 nM | 3840 nM | 344 nM | 50.7% | 78.6% | 0.7 | 10.5 ×10⁻⁶ cm/s | 6.9 ×10⁻⁶ cm/s | 2630 nM | > 1000 nM | 791 nM | 7230 nM | > 10000 nM | 3400 nM | > 10000 nM | 311 nM | 100 to 1000 nM
